Laboratory results taken from patent US11478526B2, “Methods of reducing neuroinflammation or toxicity induced by amyloid beta (abeta) using glucocorticoid induced leucine zipper (GILZ) analog peptides” (INDIANA UNIVERSITY RESEARCH AND TECHNOLOGY CORPORATION, priority 2016, dated 2022).

Columns and labels:
[1] = system: LPS induced neuroinflammation; test: LPS induced neuroinflammation: real time PCR of brain tissue; type: in vivo, mouse; settings: 25 mg/kg i.v. alternate days, day 7
Description: Animals and lipopolysaccharide induced neuroinflammation: Male C57/6J mice weighing 32 to 37 grams were housed five per cage at a temperature of 22±2° C. with 12 hour light/12 hour dark cycles with free access to laboratory food and water. Lipopolysaccharides (LPS) from Escherichia coli 026:B6, =10,000 EU/mg, purified by phenol extraction was purchased from Sigma (Sigma Aldrich, Mo., USA). The mice were randomly divided into seven groups: LPS, LPS+GA-1 or GA-2 or CP-1 or CP-2 or CP-3 or TAT. The LPS was administered intraperitoneally at […] in 100 μl of sterile saline followed by corn oil in the morning daily for six days. The GA or CP was administered intravenously at 25 mg/kg in 100 μl of sterile saline on alternate days. Additional control group included mice receiving saline alone. All animals were sacrificed on day 7.
Real time polymerase chain reaction. Total cellular RNA was isolated from each brain tissue using Qiagen kit (Invitrogen, Carlsbad, Calif.) following manufacturer's protocol and reverse transcribed using iScript cDNA synthesis kit (Biorad, Calif.). Equal amount of cDNA measured by the Nanodrop (ThermoFisher Scientific, Waltham, USA) was used for amplification of IL-1β, IL-12, CD14, BclXL and Bcl2. Real time PCR was performed using SYBR green/ROX qPCR master mix (SA Biosciences, Frederick, Md.) on the ABI Prism 7000 sequence detection system (Applied Biosystem, Foster City, Calif., USA). Each reaction contains 2×12.5 μl of master mix, 1 μl of 10 μM of primers and 50 ng of the cDNA, to a total volume of 25 μl. The thermal cycling conditions included an initial denaturation step at 50° C. for 2 min, 95° C. for 3 min, 39 cycles at 95° C. for 30 s, annealing temperature at 62° C. for 30 s and extension at 72° C. for 30 s.
The gene specific threshold cycle (Ct) for each sample (ΔCt) was corrected by subtracting the Ct for the housekeeping gene β-actin. Untreated controls were chosen as the reference samples. The ΔCt for all experimental samples was subtracted by the ΔCt for the control samples (ΔΔCt).The difference in each gene specific threshold between the sample from vehicle treated and GA or CP treated cells was determined to obtain the relative change in the specific mRNA. The magnitude of change in the mRNA was expressed as 2^−ΔΔCt. Each measurement of a sample was performed in duplicates.

Aβ1-42 exposed HFB cells = test: Cytokines in culture medium of Aβ1-42 exposed HFB; type: cell-based, human; settings: PGA at IC50 concentration

| Substance | relative expression of BCl2 in brain tissues [1] | relative expression of BclXL in brain tissues [1] | steady-state mRNA for IL-1β in brain tissues [1] | AIL-1p concentration in culture supernatant (not shown) (Aβ1-42 exposed HFB cells) | AIL-6 concentration in culture supernatant (Aβ1-42 exposed HFB cells) | relative expression of CD14 mRNA in brain tissues [1] |
| --- | --- | --- | --- | --- | --- | --- |
| Ac-EPAPESPQV-NH2 [GA-2] | 1.9+/−0.9 | 0.25+/−0.4 | decreased levels |  |  |  |
| Ac-EPAPLAPYG-NH2 [PGA-2] |  |  |  | significantly lower | significantly lower |  |
| Ac-EPAPLAPYG-NH2 [GA-1] | 1.25+/−0.5 | 0.32+/−0.15 | decreased levels |  |  | 0.48+/−0.1 |
| Ac-EPAPESPQV-NH2 [PGA-4] |  |  |  | significantly lower | significantly lower |  |
